Test results reported in ChEMBL document CHEMBL1201862, “PubChem BioAssay data set” (2004).
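96-well plates; 48 h exposure; 5 concentrations. Endpoints by linear interpolation between flanking doses. Not reached: highest tested concentration assigned. GI50 = concentration required for 50% inhibition of growth.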 The source made the active and inactive calls. Rule as the data show it: active = GI50 up to about 1.1 µM and inactive = higher.

Columns and labels:
Test in all cases: inhibition of tumour cell growth, NCI panel, 48 h
HT-29 = test system: HT-29
CCRF-CEM = test system: CCRF-CEM
Malme-3M = test system: Malme-3M
NCI-H460 = test system: NCI-H460
U-251 = test system: U-251
RPMI-8226 = test system: RPMI-8226
MCF7 = test system: MCF7
SW-620 = test system: SW-620
PC-3 = test system: PC-3
SF-268 = test system: SF-268
OVCAR-5 = test system: OVCAR-5
HL-60 = test system: HL-60
T47D = test system: T47D
UO-31 = test system: UO-31
DU-145 = test system: DU-145
IGROV-1 = test system: IGROV-1
SN12C = test system: SN12C
HOP-62 = test system: HOP-62
SK-MEL-28 = test system: SK-MEL-28
HOP-92 = test system: HOP-92

| Compound | GI50 (HT-29) | GI50 (CCRF-CEM) | GI50 (Malme-3M) | GI50 (NCI-H460) | GI50 (U-251) | GI50 (RPMI-8226) | GI50 (MCF7) | GI50 (SW-620) | GI50 (PC-3) | GI50 (SF-268) | GI50 (OVCAR-5) | GI50 (HL-60) | GI50 (T47D) | GI50 (UO-31) | GI50 (DU-145) | GI50 (IGROV-1) | GI50 (SN12C) | GI50 (HOP-62) | GI50 (SK-MEL-28) | GI50 (HOP-92) |
| --- | --- | --- | --- | --- | --- | --- | --- | --- | --- | --- | --- | --- | --- | --- | --- | --- | --- | --- | --- | --- |
| COc1ccc2nc(-c3ccccc3)cc(OCC(=O)O)c2c1 | > 100 µM (inactive) | > 100 µM (inactive) | > 100 µM (inactive) | > 100 µM (inactive) | > 100 µM (inactive) | > 100 µM (inactive) | > 100 µM (inactive) | > 100 µM (inactive) | > 100 µM (inactive) | > 100 µM (inactive) | > 100 µM (inactive) | > 100 µM (inactive) | > 100 µM (inactive) | 25.4 µM (inactive) | > 100 µM (inactive) | > 100 µM (inactive) | > 100 µM (inactive) | > 100 µM (inactive) | > 100 µM (inactive) | > 100 µM (inactive) |
| O=C1c2ccccc2C(=O)c2c(OCC3CO3)ccc(OCC3CO3)c21 (configuration not stated) | 4.84 µM (inactive) | < 0.0167 µM (active) | 7.74 µM (inactive) | 1.99 µM (inactive) | 2.92 µM (inactive) | 6 µM (inactive) | 0.195 µM (active) | 1.1 µM (active) | 4.42 µM (inactive) | 0.346 µM (active) | 10.5 µM (inactive) | 0.118 µM (active) | 6 µM (inactive) | 2.94 µM (inactive) | 3.18 µM (inactive) | 3.54 µM (inactive) | 1.07 µM (active) | 1.95 µM (inactive) | 5.47 µM (inactive) | 2.67 µM (inactive) |
| NS(=O)(=O)c1ccc(/N=N/c2ncccc2O)cc1 | > 100 µM (inactive) | – | > 100 µM (inactive) | 69.3 µM (inactive) | > 100 µM (inactive) | > 100 µM (inactive) | 57.9 µM (inactive) | 57.3 µM (inactive) | > 100 µM (inactive) | > 100 µM (inactive) | > 100 µM (inactive) | 41.1 µM (inactive) | > 100 µM (inactive) | > 100 µM (inactive) | 38.5 µM (inactive) | > 100 µM (inactive) | 71.8 µM (inactive) | > 100 µM (inactive) | > 100 µM (inactive) | > 100 µM (inactive) |
| N#CC(C#N)=C(N)/C(C#N)=C/c1ccc(O)c(O)c1 | > 92.9 µM (inactive) | 19.8 µM (inactive) | > 100 µM (inactive) | 50.5 µM (inactive) | > 89.5 µM (inactive) | 71.3 µM (inactive) | 75.2 µM (inactive) | 50.2 µM (inactive) | 37.7 µM (inactive) | > 83.2 µM (inactive) | > 58.3 µM (inactive) | 22.6 µM (inactive) | 53.7 µM (inactive) | 37.2 µM (inactive) | > 100 µM (inactive) | > 55.1 µM (inactive) | – | 15.5 µM (inactive) | > 100 µM (inactive) | 43.6 µM (inactive) |
| Cn1nnc2c(C(N)=O)ncn2c1=O [TEMOZOLOMIDE] | > 100 µM (inactive) | 78.3 µM (inactive) | > 100 µM (inactive) | > 100 µM (inactive) | > 100 µM (inactive) | > 100 µM (inactive) | > 100 µM (inactive) | > 100 µM (inactive) | > 100 µM (inactive) | > 100 µM (inactive) | > 100 µM (inactive) | 85.5 µM (inactive) | > 100 µM (inactive) | > 74 µM (inactive) | > 100 µM (inactive) | > 100 µM (inactive) | > 100 µM (inactive) | > 100 µM (inactive) | > 100 µM (inactive) | > 100 µM (inactive) |
| COc1ccc2c(c1)SC1=Nc3sc4cc(OC)ccc4[n+]3CN12 | 16.2 µM (inactive) | 20.3 µM (inactive) | 14.6 µM (inactive) | 17.2 µM (inactive) | 4.34 µM (inactive) | 20.7 µM (inactive) | 5.25 µM (inactive) | 35.7 µM (inactive) | 36.5 µM (inactive) | 2.89 µM (inactive) | 96.2 µM (inactive) | 9.29 µM (inactive) | 4.99 µM (inactive) | 53 µM (inactive) | 29 µM (inactive) | 24.9 µM (inactive) | 25.5 µM (inactive) | 49.8 µM (inactive) | – | 2.23 µM (inactive) |
| C=CCn1c(-c2ccc([N+](=O)[O-])cc2)csc1=N | 32 µM (inactive) | 11.1 µM (inactive) | 76.9 µM (inactive) | 61.1 µM (inactive) | 54.1 µM (inactive) | – | 25.4 µM (inactive) | 70 µM (inactive) | 48.1 µM (inactive) | 74.5 µM (inactive) | > 100 µM (inactive) | 18.9 µM (inactive) | 26.2 µM (inactive) | 37.2 µM (inactive) | 43.8 µM (inactive) | 59 µM (inactive) | > 100 µM (inactive) | 78.2 µM (inactive) | > 100 µM (inactive) | 47.5 µM (inactive) |
| Cc1nc(O)c(Cc2ccccc2O)c(-c2ccccc2)n1 | 87.5 µM (inactive) | 99.3 µM (inactive) | > 100 µM (inactive) | > 100 µM (inactive) | > 100 µM (inactive) | > 100 µM (inactive) | > 100 µM (inactive) | > 100 µM (inactive) | > 100 µM (inactive) | > 100 µM (inactive) | > 100 µM (inactive) | > 100 µM (inactive) | 78.5 µM (inactive) | > 100 µM (inactive) | > 100 µM (inactive) | > 100 µM (inactive) | > 100 µM (inactive) | > 100 µM (inactive) | > 100 µM (inactive) | > 100 µM (inactive) |
| C=C1C(=O)OC2/C=C(\C)C(=O)CC3OC(C)(C)OC3(C)CC(OC(=O)/C(C)=C/C)C12 (configuration not stated) | 7.89 µM (inactive) | 0.897 µM (active) | 10.9 µM (inactive) | 17.1 µM (inactive) | 27.5 µM (inactive) | 3.66 µM (inactive) | 7.46 µM (inactive) | 4.69 µM (inactive) | 25.8 µM (inactive) | 12.6 µM (inactive) | 20.4 µM (inactive) | 3.26 µM (inactive) | 17.6 µM (inactive) | 13.9 µM (inactive) | 19.4 µM (inactive) | 14.4 µM (inactive) | 20.7 µM (inactive) | 58.1 µM (inactive) | 11.9 µM (inactive) | 13.6 µM (inactive) |
| CC(=O)CC(O)(C(F)(F)Cl)C(F)(Cl)Cl (configuration not stated) | > 10 µM (inactive) | > 10 µM (inactive) | > 10 µM (inactive) | > 10 µM (inactive) | > 10 µM (inactive) | – | > 10 µM (inactive) | > 10 µM (inactive) | > 10 µM (inactive) | > 10 µM (inactive) | – | > 10 µM (inactive) | > 10 µM (inactive) | > 10 µM (inactive) | > 10 µM (inactive) | > 10 µM (inactive) | > 10 µM (inactive) | > 10 µM (inactive) | > 10 µM (inactive) | > 10 µM (inactive) |
| Cc1cc(=O)oc2cc(O)c(CN(C)CC(=O)O)cc12 | > 100 µM (inactive) | – | > 100 µM (inactive) | > 100 µM (inactive) | > 100 µM (inactive) | > 100 µM (inactive) | > 100 µM (inactive) | > 100 µM (inactive) | > 100 µM (inactive) | > 100 µM (inactive) | > 100 µM (inactive) | > 100 µM (inactive) | > 100 µM (inactive) | > 100 µM (inactive) | > 100 µM (inactive) | > 100 µM (inactive) | > 100 µM (inactive) | – | > 100 µM (inactive) | > 100 µM (inactive) |
| CCOC(=O)c1ccc(NC(NC(=O)CC)(C(F)(F)F)C(F)(F)F)cc1 | > 100 µM (inactive) | > 100 µM (inactive) | > 100 µM (inactive) | > 100 µM (inactive) | > 100 µM (inactive) | > 100 µM (inactive) | > 100 µM (inactive) | > 100 µM (inactive) | 60.3 µM (inactive) | > 100 µM (inactive) | > 100 µM (inactive) | > 100 µM (inactive) | > 100 µM (inactive) | 36.2 µM (inactive) | > 100 µM (inactive) | > 100 µM (inactive) | – | > 100 µM (inactive) | > 100 µM (inactive) | > 100 µM (inactive) |
| C=C(C)C1CCC2=CC(CC3(C)OC3C3=CC(C(=O)OC)=C(C1)O3)OC2=O (configuration not stated) | > 100 µM (inactive) | 83.2 µM (inactive) | > 100 µM (inactive) | > 100 µM (inactive) | > 100 µM (inactive) | – | > 100 µM (inactive) | > 100 µM (inactive) | > 100 µM (inactive) | > 100 µM (inactive) | > 100 µM (inactive) | > 10 µM (inactive) | 32.9 µM (inactive) | > 100 µM (inactive) | > 100 µM (inactive) | > 100 µM (inactive) | > 100 µM (inactive) | > 100 µM (inactive) | > 100 µM (inactive) | 88.3 µM (inactive) |
| Cc1cc(C)c2c(=O)n(CN3CCC(C#N)(c4ccccc4)CC3)sc2n1 | 39.9 µM (inactive) | 20.3 µM (inactive) | 22.5 µM (inactive) | 40.4 µM (inactive) | > 100 µM (inactive) | – | 62.5 µM (inactive) | 24.4 µM (inactive) | 76.7 µM (inactive) | 40 µM (inactive) | 30.9 µM (inactive) | 18.5 µM (inactive) | > 100 µM (inactive) | 17.8 µM (inactive) | > 100 µM (inactive) | > 100 µM (inactive) | > 100 µM (inactive) | 44.1 µM (inactive) | 42.5 µM (inactive) | 88.1 µM (inactive) |
| Cc1ccc(S(=O)(=O)N2CCCSCCSCCCSCC2)cc1 | > 100 µM (inactive) | > 100 µM (inactive) | – | > 100 µM (inactive) | > 100 µM (inactive) | – | > 100 µM (inactive) | > 100 µM (inactive) | > 100 µM (inactive) | > 100 µM (inactive) | > 100 µM (inactive) | > 100 µM (inactive) | > 100 µM (inactive) | > 100 µM (inactive) | > 100 µM (inactive) | > 100 µM (inactive) | > 100 µM (inactive) | > 100 µM (inactive) | > 100 µM (inactive) | > 100 µM (inactive) |
